Measurements published in patent publication US7880007B2, “Bicyclic substituted phenyl piperidine modulators of muscarinic receptors” (Vertex Pharmaceuticals Incorporated, priority 2004, dated 2011).

Tests used:
Format in all cases: cell-based
M1 muscarinic receptor = target: T1, M1 muscarinic receptor (Homo sapiens, UniProt P11229); experiment: Functional mobilization of intracellular calcium (FLIPR), M1-CHO cells; details: for M1 Activity: M1-CHO cells, calcium mobilization (FLIPR)
T1 construct: expressed in transfected cells; host or cells: CHO (M1-CHO)
T1 sequence (P11229 1-460): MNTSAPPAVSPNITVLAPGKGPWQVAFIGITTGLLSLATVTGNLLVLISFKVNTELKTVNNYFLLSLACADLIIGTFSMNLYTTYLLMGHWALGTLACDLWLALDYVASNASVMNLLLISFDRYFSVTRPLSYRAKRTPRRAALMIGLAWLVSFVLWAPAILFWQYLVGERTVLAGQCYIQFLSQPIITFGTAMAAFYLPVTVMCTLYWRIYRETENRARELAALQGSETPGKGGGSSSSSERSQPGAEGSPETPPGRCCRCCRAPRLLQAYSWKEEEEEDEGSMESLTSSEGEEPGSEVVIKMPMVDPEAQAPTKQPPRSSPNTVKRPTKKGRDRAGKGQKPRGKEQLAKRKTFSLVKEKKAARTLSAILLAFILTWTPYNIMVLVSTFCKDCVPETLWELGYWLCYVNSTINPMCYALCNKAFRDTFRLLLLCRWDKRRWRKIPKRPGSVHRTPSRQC
In short: (§1)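 Calcium mobilisation read by FLIPR over 60 s (ex 488/em 540 nm) in recombinant muscarinic CHO lines loaded with calcium dye plus 1 mM probenecid. Compounds tested as agonists alone, or as inhibitors against EC80 carbachol after 15 min pre-incubation or co-addition; 0.5% DMSO; efficacy scaled to carbachol maximal response.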

M2 muscarinic receptor = target: T2, M2 muscarinic receptor (Homo sapiens, UniProt P08172); experiment: Functional mobilization of intracellular calcium (FLIPR), M2-CHO cells; details: for M2 Activity: M2-CHO cells, calcium mobilization (FLIPR)
T2 construct: expressed in transfected cells; host or cells: CHO (M2-CHO)
T2 sequence (P08172 1-466): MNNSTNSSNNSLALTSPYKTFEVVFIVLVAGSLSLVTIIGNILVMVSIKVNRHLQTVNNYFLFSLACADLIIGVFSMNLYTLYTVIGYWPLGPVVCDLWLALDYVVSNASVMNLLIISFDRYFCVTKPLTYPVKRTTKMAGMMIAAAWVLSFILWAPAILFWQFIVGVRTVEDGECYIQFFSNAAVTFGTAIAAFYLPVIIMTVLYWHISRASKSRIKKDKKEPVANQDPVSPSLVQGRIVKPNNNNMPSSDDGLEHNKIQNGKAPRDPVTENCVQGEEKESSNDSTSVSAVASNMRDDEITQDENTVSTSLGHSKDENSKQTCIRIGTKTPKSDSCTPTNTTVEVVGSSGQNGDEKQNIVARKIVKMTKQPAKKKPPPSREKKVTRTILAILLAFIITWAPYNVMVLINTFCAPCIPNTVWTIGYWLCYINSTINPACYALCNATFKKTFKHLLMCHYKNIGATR
In short: as §1

M4 muscarinic receptor = target: T3, M4 muscarinic receptor (Homo sapiens, UniProt P08173); experiment: Functional mobilization of intracellular calcium (FLIPR), M4-CHO cells; details: for M4 Activity: M4-CHO cells, calcium mobilization (FLIPR)
T3 construct: expressed in transfected cells; host or cells: CHO (M4-CHO)
T3 sequence (P08173 1-479): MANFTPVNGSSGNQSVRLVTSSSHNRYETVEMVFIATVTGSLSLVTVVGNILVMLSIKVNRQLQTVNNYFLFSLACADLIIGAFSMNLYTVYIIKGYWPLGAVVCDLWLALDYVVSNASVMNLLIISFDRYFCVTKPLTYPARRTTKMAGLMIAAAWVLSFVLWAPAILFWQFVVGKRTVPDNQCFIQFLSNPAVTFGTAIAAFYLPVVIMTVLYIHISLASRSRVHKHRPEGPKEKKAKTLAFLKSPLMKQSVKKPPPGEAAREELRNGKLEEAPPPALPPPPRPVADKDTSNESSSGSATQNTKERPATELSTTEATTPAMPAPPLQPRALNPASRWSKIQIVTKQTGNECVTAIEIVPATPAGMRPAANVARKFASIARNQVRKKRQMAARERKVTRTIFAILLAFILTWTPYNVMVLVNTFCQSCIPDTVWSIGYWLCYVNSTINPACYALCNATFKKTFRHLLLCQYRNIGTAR
In short: as §1

[1] = 100% efficacy = maximum response obtained with the Carbachol control
[2] = 100% efficacy is the maximum response obtained with the Carbachol control

Row | SMILES | Emax (M1 muscarinic receptor; [1]) | M1 Activity (M1 muscarinic receptor) | Emax (M2 muscarinic receptor; [1]) | M2 Activity (M2 muscarinic receptor) | Emax (M4 muscarinic receptor; [1]) | M4 Activity (M4 muscarinic receptor) | Emax (M1 muscarinic receptor; [2]) | Emax (M2 muscarinic receptor; [2]) | Emax (M4 muscarinic receptor; [2])
1 | Cc1ccc(F)cc1C1CCN([C@H]2CC[C@H]3CC[C@H]2C3)CC1 [Compound 81] | 25 to 100% | + (activity was measured to be greater than 5.0 μM) | 25 to 100% | + (activity was measured to be greater than 5.0 μM) | 25 to 100% | ++ (activity was measured to be from 1.0 μM to 5.0 μM) | – | – | –
2 | COc1ccc(Cl)cc1C1(OC)CCN(C2CCOCC2)CC1 [Compound 201] | < 25% | + (activity was measured to be greater than 5.0 μM) | < 25% | + (activity was measured to be greater than 5.0 μM) | < 25% | + (activity was measured to be greater than 5.0 μM) | – | – | –
3 | COc1ccccc1C1(C#N)CCN(C2CC3CCC(C3)C2)CC1 (stereo not drawn) [Compound 421] | – | ++ (activity was measured to be from 1.0 μM to 5.0 μM) | – | ++ (activity was measured to be from 1.0 μM to 5.0 μM) | – | +++ (activity was measured to be less than 1.0 μM) | 25 to 100% | < 25% | 25 to 100%
4 | Cc1ccc(Cl)cc1C1CCN(CC2C[C@H]3CC[C@H]2C3)CC1 (stereo partly drawn) [Compound 315] | 25 to 100% | + (activity was measured to be greater than 5.0 μM) | 25 to 100% | + (activity was measured to be greater than 5.0 μM) | 25 to 100% | +++ (activity was measured to be less than 1.0 μM) | – | – | –
5 | COc1ccccc1C1(C#N)CCN(C2CCCCC2)CC1 [Compound 348] | 25 to 100% | + (activity was measured to be greater than 5.0 μM) | < 25% | + (activity was measured to be greater than 5.0 μM) | 25 to 100% | ++ (activity was measured to be from 1.0 μM to 5.0 μM) | – | – | –
6 | COc1ccc(C)cc1C1CCN(CC2C[C@H]3CC[C@H]2C3)CC1 (stereo partly drawn) [Compound 107] | 25 to 100% | + (activity was measured to be greater than 5.0 μM) | < 25% | + (activity was measured to be greater than 5.0 μM) | 25 to 100% | +++ (activity was measured to be less than 1.0 μM) | – | – | –
7 | COc1ccc(C2CCN(C3C[C@H]4CC[C@H](C3)C4)CC2)c(C)c1 (stereo partly drawn) [Compound 244] | < 25% | + (activity was measured to be greater than 5.0 μM) | < 25% | + (activity was measured to be greater than 5.0 μM) | < 25% | + (activity was measured to be greater than 5.0 μM) | – | – | –
8 | COc1ccc(C2CCN(CC3C[C@H]4CC[C@H]3C4)CC2)c(OC)c1 (stereo partly drawn) [Compound 159] | < 25% | + (activity was measured to be greater than 5.0 μM) | < 25% | + (activity was measured to be greater than 5.0 μM) | < 25% | ++ (activity was measured to be from 1.0 μM to 5.0 μM) | – | – | –
9 | COc1ccc(Cl)cc1C1(OC)CCN(C2CCCCCC2)CC1 [Compound 101] | 25 to 100% | ++ (activity was measured to be from 1.0 μM to 5.0 μM) | < 25% | + (activity was measured to be greater than 5.0 μM) | 25 to 100% | +++ (activity was measured to be less than 1.0 μM) | – | – | –
10 | CCOC(=O)N1CCC(N2CCC(C#N)(c3ccccc3OC)CC2)CC1 [Compound 245, ethyl 4-cyano-4-(2-methoxyphenyl)-1,4′-bipiperidine-1′-carboxylate] | 25 to 100% | +++ (activity was measured to be less than 1.0 μM) | < 25% | + (activity was measured to be greater than 5.0 μM) | 25 to 100% | +++ (activity was measured to be less than 1.0 μM) | – | – | –
11 | COc1ccc(Cl)cc1C1(OC)CCN(C2CC3CCC(C3)C2)CC1 (stereo not drawn) [Compound 288] | 25 to 100% | ++ (activity was measured to be from 1.0 μM to 5.0 μM) | < 25% | + (activity was measured to be greater than 5.0 μM) | 25 to 100% | +++ (activity was measured to be less than 1.0 μM) | – | – | –
12 | COc1ccc(Cl)cc1C1CCN(CC2CCCCC2)CC1 [Compound 91] | < 25% | ++ (activity was measured to be from 1.0 μM to 5.0 μM) | < 25% | + (activity was measured to be greater than 5.0 μM) | 25 to 100% | ++ (activity was measured to be from 1.0 μM to 5.0 μM) | – | – | –
13 | COc1ccc(Cl)cc1C1(OC)CCN(C2CC3CCC2C3)CC1 (stereo not drawn) [Compound 308] | < 25% | + (activity was measured to be greater than 5.0 μM) | < 25% | + (activity was measured to be greater than 5.0 μM) | 25 to 100% | ++ (activity was measured to be from 1.0 μM to 5.0 μM) | – | – | –
14 | CCCC1CCC(N2CCC(c3cc(Cl)ccc3OC)CC2)CC1 (stereo not drawn) [Compound 293] | 25 to 100% | ++ (activity was measured to be from 1.0 μM to 5.0 μM) | 25 to 100% | ++ (activity was measured to be from 1.0 μM to 5.0 μM) | 25 to 100% | ++ (activity was measured to be from 1.0 μM to 5.0 μM) | – | – | –
15 | COc1ccccc1C1CCN(CC2CC3CCC2O3)CC1 (stereo not drawn) [Compound 218] | < 25% | + (activity was measured to be greater than 5.0 μM) | < 25% | + (activity was measured to be greater than 5.0 μM) | 25 to 100% | ++ (activity was measured to be from 1.0 μM to 5.0 μM) | – | – | –
16 | COc1ccc(F)cc1C1CCN(C2CCC3CCC2C3)CC1 (stereo not drawn) [Compound 412] | – | +++ (activity was measured to be less than 1.0 μM) | – | ++ (activity was measured to be from 1.0 μM to 5.0 μM) | – | +++ (activity was measured to be less than 1.0 μM) | 25 to 100% | < 25% | 25 to 100%
